From US20220265817A1, “THERAPEUTIC COMPOSITIONS AND METHODS FOR TREATING HEPATITIS B” (priority 2017, published 2022)
Read-outs that look alike come from different tables or passages of the source.

Assays:
[1] = tested on: D type HBV in primary human hepatocytes; test: microbe, parasite or virus in culture; assay type: cell-based; conditions: Hepatitis B virus, Hepatocyte; for EC50: determined in an earlier separate experiment
Method: (§1) The mouse liver perfusion was applied to isolate PHHs. The isolated hepatocytes were further purified by Percoll. The cells were resuspended with culture media and seeded into the 96-well plates (6×10^4 cell/well) or 48-well plates (1.2×10^5 cell/well). The PHHs were infected with a D type HBV one day post seeding (day 1).
(§2) On day 2, the test compounds were diluted and added into the cell culture plates. The culture media containing the compounds were refreshed every other day. The cell culture supernatants were collected on day 8 for the HBV DNA and antigen determinations.
(§3) The compounds were tested at 7 concentrations, 3-fold dilution, in triplicate.
(§4) Two compounds were tested at 5×5 matrix, in triplicate plates.
DNA in the culture supernatants harvested on days 8 were isolated with QIAamp 96 DNA Blood Kit (Qiagen-51161). For each sample, 100 μl of the culture supernatants was used to extract DNA. The DNA was eluted with 100 μl, 150 μl or 180 μl of AE. HBV DNA in the culture supernatants was quantified by qPCR. The combination effect was analyzed by the MacSynergy software. The primers are described below.

[2] = tested on: D type HBV in primary human hepatocytes (HBeAg); test: microbe, parasite or virus in culture; assay type: cell-based; conditions: Hepatitis B virus, Hepatocyte
Method: as §1, §2, §3, §4
HBsAg/HBeAg in the culture supernatants harvested on days 8 were measured by the HBsAg/HBeAg ELISA kit (Autobio) according to the manual. The samples were diluted with PBS to get the signal in the range of the standard curve. The inhibition rates were calculated with the formula below. The combination effect was analyzed by the MacSynergy software.
% Inh. HBeAg=[1-HBeAg quantity of sample/HBV quantity of DMSO control]×100.

O=C(Nc1ccc(F)c(F)c1)c1cc(S(=O)(=O)NC2CCCC2)ccc1F [Compound 22]
inhibition at 0.061728 µM ([1]; TAF 0.00 nM, COMPOUND 22 61.728 nM): 2.38%
inhibition at 0.18519 µM ([1]; TAF 0.00 nM, COMPOUND 22 185.19 nM, read-out: AVERAGE % INHIBITION): -3.33%
inhibition at 0.55556 µM ([1]; TAF 0.00 nM, COMPOUND 22 555.56 nM, read-out: AVERAGE % INHIBITION): 8.01%
inhibition at 1.6667 µM ([1]; TAF 0.00 nM, COMPOUND 22 1666.7 nM): 28%
inhibition at 5 µM ([1]; TAF 0.00 nM, COMPOUND 22 5000 nM, read-out: AVERAGE % INHIBITION): 54.7%
inhibition at 0.06173 µM ([1]; read-out: AVERAGE % […] DNA, COMPOUND 22 61.73 nM alone): -11.8%
inhibition at 0.18519 µM ([1]; read-out: AVERAGE % […] DNA, COMPOUND 22 185.19 nM alone, read-out: AVERAGE % INHIBITION HBV DNA): -9.12%
inhibition at 0.55556 µM ([1]; read-out: AVERAGE % […] DNA, COMPOUND 22 555.56 nM alone, read-out: AVERAGE % INHIBITION HBV DNA): -12.7%
inhibition at 1.66667 µM ([1]; read-out: AVERAGE % […] DNA, COMPOUND 22 1666.67 nM alone): 17.9%
inhibition at 5 µM ([1]; read-out: AVERAGE % […] DNA, COMPOUND 22 5000.00 nM alone, read-out: AVERAGE % INHIBITION HBV DNA): 63.1%
EC50 ([1]; HBV DNA, read-out: Inhibitor EC50): 1.02 µM
EC50 ([1]; PHH, read-out: Inhibitor B EC50 HBV DNA): 1.02 µM
inhibition at 0.06173 µM ([2]; read-out: AVERAGE % INHIBITION HBeAg, COMPOUND 22 61.73 nM alone): -16.8%
inhibition at 0.18519 µM ([2]; read-out: AVERAGE % INHIBITION HBeAg, COMPOUND 22 185.19 nM alone): -14.6%
inhibition at 0.55556 µM ([2]; read-out: AVERAGE % INHIBITION HBeAg, COMPOUND 22 555.56 nM alone): -7.23%
inhibition at 1.66667 µM ([2]; read-out: AVERAGE % INHIBITION HBeAg, COMPOUND 22 1666.67 nM alone): 8.5%
inhibition at 5 µM ([2]; read-out: AVERAGE % INHIBITION HBeAg, COMPOUND 22 5000.00 nM alone): 21.7%
inhibition at 61.73 µM ([2]; read-out: AVERAGE % INHIBITION, IFNα2a 0.00 IU/mL, COMPOUND 22 61.73 μM): -7.2%
inhibition at 185.19 µM ([2]; read-out: AVERAGE % INHIBITION, IFNα2a 0.00 IU/mL, COMPOUND 22 185.19 μM): -9.57%
inhibition at 555.56 µM ([2]; read-out: AVERAGE % INHIBITION, IFNα2a 0.00 IU/mL, COMPOUND 22 555.56 μM): -8.17%
inhibition at 1666.67 µM ([2]; read-out: AVERAGE % INHIBITION, IFNα2a 0.00 IU/mL, COMPOUND 22 1666.67 μM): 5.92%
inhibition at 5000 µM ([2]; read-out: AVERAGE % INHIBITION, IFNα2a 0.00 IU/mL, COMPOUND 22 5000.00 μM): 20.9%
inhibition at 0.061728 µM ([2]; read-out: AVERAGE % INHIBITION, TAF 0.00 nM, COMPOUND 22 61.728 nM): -6.71%
inhibition at 0.18519 µM ([2]; read-out: AVERAGE % INHIBITION, TAF 0.00 nM, COMPOUND 22 185.19 nM): -12.4%
inhibition at 0.55556 µM ([2]; read-out: AVERAGE % INHIBITION, TAF 0.00 nM, COMPOUND 22 555.56 nM): -5.06%
inhibition at 1.6667 µM ([2]; read-out: AVERAGE % INHIBITION, TAF 0.00 nM, COMPOUND 22 1666.7 nM): 10.1%
inhibition at 5 µM ([2]; read-out: AVERAGE % INHIBITION, TAF 0.00 nM, COMPOUND 22 5000 nM): 29.7%
EC50 ([2]; read-out: Inhibitor B EC50 HBeAg): 10.7 µM
EC50 ([2]; read-out: Inhibitor EC50): 10.7 µM
